Assay results as given in patent US11091488B2 (MISSION THERAPEUTICS LIMITED, priority 2015, dated 2021).

Target: USP30 (Homo sapiens (Human), UniProt Q70CQ3)
Experiment: USP30 biochemical IC50 assay
Conditions: read-out: IC50 range; fluorescence polarisation, TAMRA labelled peptide linked to ubiquitin; 30 min pre-incubation, read after 2 hr
Method: USP30 Biochemical IC50 Assay
Dilution plates were prepared at 21 times the final concentration (2100 μM for a final concentration of 100 μM) in 50% DMSO in a 96-well polypropylene V-bottom plate (Greiner #651201). A typical 8-point dilution series to be 100, 30, 10, 3, 1, 0.3, 0.1, 0.03 μM final. Reactions were performed in duplicate in black 384 well plates (small volume, Greiner 784076) in a final reaction volume of 21 μl. Either 1 μl of 50% DMSO or diluted compound was added to the plate. USP30 was diluted in reaction buffer (40 mM Tris, pH 7.5, 0.005% Tween 20, 0.5 mg/ml BSA, 5 mM—beta-mercaptoethanol) to the equivalent of 0.05 μl/well and 10 μl of diluted USP30 was added to the compound. Enzyme and compound were incubated for 30 min at room temp. Reactions were initiated by the addition of 50 nM of TAMRA labelled peptide linked to ubiquitin via an iso-peptide bond as fluorescence polarisation substrate. Reactions were read immediately after addition of substrate and following a 2 hr incubation at room temperature. Readings were performed on a Pherastar Plus (BMG Labtech). λ Excitation 540 nm; λ Emission 590 nm.

Sequence of USP30 (Q70CQ3 57-517): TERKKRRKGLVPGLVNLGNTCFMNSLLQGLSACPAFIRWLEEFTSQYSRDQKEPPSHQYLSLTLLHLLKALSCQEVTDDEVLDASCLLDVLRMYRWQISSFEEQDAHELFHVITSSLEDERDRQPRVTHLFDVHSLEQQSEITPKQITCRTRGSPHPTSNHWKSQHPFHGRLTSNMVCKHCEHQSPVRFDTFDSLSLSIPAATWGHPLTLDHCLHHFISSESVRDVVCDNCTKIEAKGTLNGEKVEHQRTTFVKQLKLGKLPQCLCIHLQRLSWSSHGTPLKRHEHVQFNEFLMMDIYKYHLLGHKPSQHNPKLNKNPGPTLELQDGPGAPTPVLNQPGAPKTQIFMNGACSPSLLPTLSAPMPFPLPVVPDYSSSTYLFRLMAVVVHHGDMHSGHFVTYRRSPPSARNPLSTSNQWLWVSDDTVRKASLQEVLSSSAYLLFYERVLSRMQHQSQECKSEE

IC50	Compound
100 to 1000 nM	N#CN1CC[C@@H](N2CCN(c3ccc4c(c3)OCC(=O)N4)S2(=O)=O)C1 [Example 3, (R)-3-(1,1-dioxido-5-(3-oxo-3,4-dihydro-2H-benzo[b][1,4]oxazin-7-yl)-1,2,5-thiadiazolidin-2-yl)pyrrolidine-1-carbonitrile]
< 100 nM	N#CN1CC[C@@H](N2CCN(c3ccc4c(c3)NC(=O)CO4)S2(=O)=O)C1 [Example 5, (R)-3-(1,1-dioxido-5-(3-oxo-3,4-dihydro-2H-benzo[b][1,4]oxazin-6-yl)-1,2,5-thiadiazolidin-2-yl)pyrrolidine-1-carbonitrile]
< 100 nM	N#CN1CC[C@@H](N2CCN(c3cccc(-c4ccccc4)c3)S2(=O)=O)C1 [Example 13, (R)-3-(5-([1,1′-biphenyl]-3-yl)-1,1-dioxido-1,2,5-thiadiazolidin-2-yl)pyrrolidine-1-carbonitrile]
< 100 nM	COc1ccccc1-c1cccc(N2CCN([C@@H]3CCN(C#N)C3)S2(=O)=O)c1 [Example 10, (R)-3-(5-(2′-methoxy-[1,1′-biphenyl]-3-yl)-1,1-dioxido-1,2,5-thiadiazolidin-2-yl)pyrrolidine-1-carbonitrile]
100 to 1000 nM	N#CN1CCC(N2CCN(c3ccccc3)S2(=O)=O)C1 (stereo not drawn) [Example 37, 3-(1,1-dioxido-5-phenyl-1,2,5-thiadiazolidin-2-yl)pyrrolidine-1-carbonitrile]
100 to 1000 nM	Cn1cc(-c2cccc(N3CCCN([C@@H]4CCN(C#N)C4)S3(=O)=O)c2)cn1 [Example 21, (R)-3-(6-(3-(1-methyl-1H-pyrazol-4-yl)phenyl)-1,1-dioxido-1,2,6-thiadiazinan-2-yl)pyrrolidine-1-carbonitrile]
100 to 1000 nM	COc1ccc2c(c1)CCN(S(=O)(=O)N[C@@H]1CCN(C#N)C1)C2 [Example 65, (R)—N-(1-cyanopyrrolidin-3-yl)-6-methoxy-3,4-dihydroisoquinoline-2(1H)-sulfonamide]
100 to 1000 nM	N#CN1CC[C@@H](N2CCCN(c3cccc(-c4ccccc4)c3)S2(=O)=O)C1 [Example 14, (R)-3-(6-([1,1′-biphenyl]-3-yl)-1,1-dioxido-1,2,6-thiadiazinan-2-yl)pyrrolidine-1-carbonitrile]
< 100 nM	N#CN1CC[C@H](N2CCN(c3cccc(-c4ccccc4)n3)S2(=O)=O)C1 [Example 36, (S)-3-(1,1-dioxido-5-(6-phenylpyridin-2-yl)-1,2,5-thiadiazolidin-2-yl)pyrrolidine-1-carbonitrile]
1000 to 10000 nM	N#CN1CC[C@@H](N2CCCN(c3ccc4nc(C(F)(F)F)[nH]c4c3)S2(=O)=O)C1 [Example 46, (R)-3-(1,1-dioxido-6-(2-(trifluoromethyl)-1H-benzo[d]imidazol-6-yl)-1,2,6-thiadiazinan-2-yl)pyrrolidine-1-carbonitrile]
100 to 1000 nM	C[C@H]1CN(C#N)C[C@@H]1N1CCN(c2cccc(N3CCN(C)CC3)c2)S1(=O)=O [Example 40, (3S,4R)-3-methyl-4-(5-(3-(4-methylpiperazin-1-yl)phenyl)-1,1-dioxido-1,2,5-thiadiazolidin-2-yl)pyrrolidine-1-carbonitrile]
< 100 nM	COc1ccc(N2CCN([C@@H]3CCN(C#N)C3)S2(=O)=O)cc1-c1ccccc1 [Example 42, (R)-3-(5-(6-methoxy-[1,1′-biphenyl]-3-yl)-1,1-dioxido-1,2,5-thiadiazolidin-2-yl)pyrrolidine-1-carbonitrile]
100 to 1000 nM	N#CN1CC[C@@H](NS(=O)(=O)N2CCc3cc(-c4ccccc4)ccc32)C1 [Example 63, (R)—N-(1-cyanopyrrolidin-3-yl)-5-phenylindoline-1-sulfonamide]
100 to 1000 nM	N#CN1CCC(NS(=O)(=O)N2CCN(c3ccccc3)CC2)C1 (stereo not drawn) [Example 60, N-(1-cyanopyrrolidin-3-yl)-4-phenylpiperazine-1-sulfonamide]
1000 to 10000 nM	N#CN1CCC(NS(=O)(=O)N2CCc3ccccc32)C1 (stereo not drawn) [Example 61, N-(1-cyanopyrrolidin-3-yl)indoline-1-sulfonamide]
< 100 nM	N#CN1CC[C@@H](N2CCN(c3ccnc(N4CCOCC4)c3)S2(=O)=O)C1 [Example 50, (R)-3-(5-(2-morpholinopyridin-4-yl)-1,1-dioxido-1,2,5-thiadiazolidin-2-yl)pyrrolidine-1-carbonitrile]
1000 to 10000 nM	N#CN1CC[C@@H](N2Cc3cc(-c4ccccc4)ccc3NS2(=O)=O)C1 [Example 75, (R)-3-(2,2-dioxido-6-phenyl-1,4-dihydro-3H-benzo[c][1,2,6]thiadiazin-3-yl)pyrrolidine-1-carbonitrile]
100 to 1000 nM	N#CN1CC[C@@H](N2Cc3ccccc3N(Cc3ccccc3)S2(=O)=O)C1 [Example 69, (R)-3-(1-benzyl-2,2-dioxido-1,4-dihydro-3H-benzo[c][1,2,6]thiadiazin-3-yl)pyrrolidine-1-carbonitrile]
< 100 nM	N#CN1CC[C@@H](N2CCN(c3cc(-c4ccccc4)n[nH]3)S2(=O)=O)C1 [Example 28, (R)-3-(1,1-dioxido-5-(3-phenyl-1H-pyrazol-5-yl)-1,2,5-thiadiazolidin-2-yl)pyrrolidine-1-carbonitrile]

IC50	Compound
100 to 1000 nM	N#CN1CCC(NS(=O)(=O)Nc2cccc(-c3ccccc3)c2)C1 (stereo not drawn) [Example 57, N-biphenyl-3-yl-N′-(1-cyanopyrrolidin-3-yl)sulfuric diamide]
1000 to 10000 nM	N#CN1CC[C@@H](N2c3ccccc3N(Cc3cccnc3)S2(=O)=O)C1 [Example 68, (R)-3-(2,2-dioxido-3-(pyridin-3-ylmethyl)benzo[c][1,2,5]thiadiazol-1(3H)-yl)pyrrolidine-1-carbonitrile]
100 to 1000 nM	N#CN1CCC(NS(=O)(=O)Nc2ccc(-c3ccccc3)cc2)C1 (stereo not drawn) [Example 58, N-biphenyl-4-yl-N′-(1-cyanopyrrolidin-3-yl)sulfuric diamide]
< 100 nM	N#CN1CC[C@H](N2CCN(c3ccc(-c4ccncc4)cc3)S2(=O)=O)C1 [Example 32, (S)-3-(1,1-dioxido-5-(4-(pyridin-4-yl)phenyl)-1,2,5-thiadiazolidin-2-yl)pyrrolidine-1-carbonitrile]
1000 to 10000 nM	CN1c2ccccc2N([C@@H]2CCN(C#N)C2)S1(=O)=O [Example 66, (R)-3-(3-methyl-2,2-dioxidobenzo[c][1,2,5]thiadiazol-1(3H)-yl)pyrrolidine-1-carbonitrile]
100 to 1000 nM	N#CN1CC[C@H](N2CCN(c3cccc(-c4cccnc4)c3)S2(=O)=O)C1 [Example 48, (S)-3-(1,1-dioxido-5-(3-(pyridin-3-yl)phenyl)-1,2,5-thiadiazolidin-2-yl)pyrrolidine-1-carbonitrile]
< 100 nM	N#CN1CC[C@@H](N2CCN(c3cc(-c4ccccc4)no3)S2(=O)=O)C1 [Example 26, (R)-3-(1,1-dioxido-5-(3-phenylisoxazol-5-yl)-1,2,5-thiadiazolidin-2-yl)pyrrolidine-1-carbonitrile]
100 to 1000 nM	COCCN(CCOC)c1cc(N2CCN([C@@H]3CCN(C#N)C3)S2(=O)=O)ccn1 [Example 56, (R)-3-(5-(2-(bis(2-methoxyethyl)amino)pyridin-4-yl)-1,1-dioxido-1,2,5-thiadiazolidin-2-yl)pyrrolidine-1-carbonitrile]
100 to 1000 nM	CN1CCN(c2cc(N3CCN([C@@H]4CCN(C#N)C4)S3(=O)=O)ccn2)CC1 [Example 52, (R)-3-(5-(2-(4-methylpiperazin-1-yl)pyridin-4-yl)-1,1-dioxido-1,2,5-thiadiazolidin-2-yl)pyrrolidine-1-carbonitrile]
1000 to 10000 nM	CN(c1ccccc1)S(=O)(=O)N(C)C1CCN(C#N)C1 (stereo not drawn) [Example 76, N-(1-cyanopyrrolidin-3-yl)-N,N′-dimethyl-N′-phenylsulfuric diamide]
< 100 nM	COc1cccc(-c2cccc(N3CCN([C@@H]4CCN(C#N)C4)S3(=O)=O)c2)c1 [Example 16, (R)-3-(5-(3′-methoxy-[1,1′-biphenyl]-3-yl)-1,1-dioxido-1,2,5-thiadiazolidin-2-yl)pyrrolidine-1-carbonitrile]
100 to 1000 nM	CO[C@@H]1CCN(c2cc(N3CCN([C@@H]4CCN(C#N)C4)S3(=O)=O)ccn2)C1 [Example 54, (R)-3-(5-(2-((R)-3-methoxypyrrolidin-1-yl)pyridin-4-yl)-1,1-dioxido-1,2,5-thiadiazolidin-2-yl)pyrrolidine-1-carbonitrile]
100 to 1000 nM	N#CN1CC[C@@H](N2CCCN(c3cc(-c4ccccc4)no3)S2(=O)=O)C1 [Example 27, (R)-3-(1,1-dioxido-6-(3-phenylisoxazol-5-yl)-1,2,6-thiadiazinan-2-yl)pyrrolidine-1-carbonitrile]
100 to 1000 nM	COC1CN(c2cc(N3CCN([C@@H]4CCN(C#N)C4)S3(=O)=O)ccn2)C1 [Example 55, (R)-3-(5-(2-(3-methoxyazetidin-1-yl)pyridin-4-yl)-1,1-dioxido-1,2,5-thiadiazolidin-2-yl)pyrrolidine-1-carbonitrile]
1000 to 10000 nM	N#CN1CC[C@@H](NS(=O)(=O)Nc2ccc3nc(C(F)(F)F)[nH]c3c2)C1 [Example 45]
100 to 1000 nM	N#CN1CC[C@@H](NS(=O)(=O)N2CCCn3nc(-c4ccccc4)cc32)C1 [Example 30, (R)—N-(1-cyanopyrrolidin-3-yl)-2-phenyl-6,7-dihydropyrazolo[1,5-a]pyrimidine-4(5H)-sulfonamide]
100 to 1000 nM	N#CN1CC[C@@H](N2CCCN(c3ccc(-c4ccccc4)cc3)S2(=O)=O)C1 [Example 12, (R)-3-(6-([1,1′-biphenyl]-4-yl)-1,1-dioxido-1,2,6-thiadiazinan-2-yl)pyrrolidine-1-carbonitrile]
100 to 1000 nM	N#CN1CC[C@@H](N2Cc3ccc(-c4ccccc4)cc3NS2(=O)=O)C1 [Example 72, (R)-3-(2,2-dioxido-7-phenyl-1,4-dihydro-3H-benzo[c][1,2,6]thiadiazin-3-yl)pyrrolidine-1-carbonitrile]

Compound	IC50
N#CN1CC[C@H](N2CCN(c3cccc(-c4ccncc4)c3)S2(=O)=O)C1 [Example 33, (S)-3-(1,1-dioxido-5-(3-(pyridin-4-yl)phenyl)-1,2,5-thiadiazolidin-2-yl)pyrrolidine-l-carbonitrile]	< 100 nM
COc1ccccc1-c1ccc(N2CCN([C@@H]3CCN(C#N)C3)S2(=O)=O)cc1 [Example 17, (R)-3-(5-(2′-methoxy-[1,1′-biphenyl]-4-yl)-1,1-dioxido-1,2,5-thiadiazolidin-2-yl)pyrrolidine-l-carbonitrile]	< 100 nM
